Measurements reported in patent EP4382907A1, “METHOD FOR PREDICTING A PATIENT-SPECIFIC RESPONSE TO THE FLOT CHEMOTHERAPY SCHEME” (Technische Universität Dresden, priority 2022, dated 2024).
“Also recorded” adds a separate entry of the source. Read-outs that look alike come from different tables or passages of the source.

Tested on: Zellen eines ösophago-gastralen Karzinoms oder eines Magenkarzinoms
Experiment: Cell viability dose-response of single FLOT components on in vitro cultured patient tumour cells (Presto Blue)
Assay type: cell-based
Source text: Die Konzentration der mindestens einen Komponente der Testzusammensetzung kann auf Basis von empirisch ermittelten Werten festgelegt werden. Zur empirischen Bestimmung von geeigneten Komponentenkonzentrationen für die Testzusammensetzung werden zunächst Zellen eines ösophago-gastralen Karzinoms, insbesondere eines Magenkarzinoms, von mehreren Patienten entnommen und diese Zellen jeweils separat bei physiologischen Bedingungen in vitro kultiviert. Dabei kann die Patientenkultur auf mehrere Vertiefungen einer Zellkulturplatte aufgeteilt werden. Die kultivierten Patientenzellen werden anschließend jeweils mit einer der Komponenten in jeweils vorgegebenen Konzentrationen in Kontakt gebracht und inkubiert. Das heißt, die die Patientenkulturen werden mit den jeweiligen Komponentenkonzentrationen behandelt. Da sich für Leucovorin selbst keine Wirkung auf die Zellen nachweisen lässt, kann Leucovorin als Komponente zur Bestimmung der Komponentenkonzentration ausgenommen werden. Die Behandlung kann in zwei Vorgehensvarianten unterschieden werden. Gemäß einer ersten Variante erfolgt die Behandlung einer Patientenkultur mit den Komponentenkonzentrationen der betreffenden Komponente beginnend mit der niedrigsten Komponentenkonzentration, wobei die Komponentenkonzentration jeweils nach einer vorgegebenen Inkubationszeit schrittweise oder kontinuierlich erhöht wird. Die Zellviabilität wird dabei nach vorgegebenen Inkubationszeiten bestimmt. Gemäß einer zweiten Variante, werden Patientenzellen enthaltene Vertiefungen jeweils mit einer konkreten Konzentration der jeweiligen Komponente behandelt und inkubiert, wobei die Zellviabilitäten nach einer vorgegebenen Inkubationszeit bestimmt werden. Auf diese Weise können mehrere Komponentenkonzentrationen verschiedener Konzentrationen gleichzeitig getestet werden.
Für jede Komponente 5-Fluorouracil, Oxaliplatin und Docetaxel, kann eine patientenspezifische mittlere inhibitorische Konzentration IC50 (IC50F, IC50O, IC50T,) ermittelt werden. Die IC50-Werte geben an, ab welcher Konzentration der Komponenten eine halbmaximale Wachstumshemmung der Patientenzellen erreicht ist. Anschließend wird aus den Werten der ermittelten patientenspezifischen mittleren inhibitorischen Konzentrationen (IC50F, IC50O, IC50T) für jede Komponente (5-Fluorouracil, Oxaliplatin und Docetaxel, (F, O, T)) ein inhibitorischer Konzentrations-Mittelwert (mIC50F, mIC50O, mIC50T) bestimmt. Der inhibitorische Konzentrations-Mittelwert mIC50 ist der Mittelwert aus der Gesamtheit der IC50-Werte einer der Komponenten (F, O, T). […]

O=c1[nH]cc(F)c(=O)[nH]1 [5-FU, 5-Fluorouracil]
IC50 (144 h, read-out: 5-FU-spezifische mittlere halbmaximale inhibitorische Konzentration mIC50F): 10.3 µM

Nc1nc2c(c(=O)[nH]1)N(C=O)C(CNc1ccc(C(=O)N[C@@H](CCC(=O)O)C(=O)O)cc1)CN2 (stereo partly shown) [Leucovorin]
Effekt auf die Zellviabilität der Patientenkulturen (single-agent tests): keine Wirkung; also recorded: keinen Effekt

CC(=O)O[C@@]12CO[C@@H]1C[C@H](O)[C@@]1(C)C(=O)[C@H](O)C3=C(C)[C@@H](OC(=O)[C@H](O)[C@@H](NC(=O)OC(C)(C)C)c4ccccc4)C[C@@](O)([C@@H](OC(=O)c4ccccc4)[C@H]21)C3(C)C [Docetaxel]
IC50 (cell cultures of 13 patients, same procedure as for 5-FU, read-out: Docetaxelspezifische mittlere halbmaximale inhibitorische Konzentration mIC50T): 0.0012 µM

O=C1[O][Pt]2([NH][C@@H]3CCCC[C@H]3[NH]2)[O]C1=O [Oxaliplatin]
IC50 (cell cultures of 13 patients, same procedure as for 5-FU, read-out: Oxaliplatin-spezifische mittlere halbmaximale inhibitorische Konzentration mIC50O): 10.7 µM
